{"source": "ChEMBL document CHEMBL2176951", "about": "“Molecular mechanisms of acquired proteasome inhibitor resistance” (J Med Chem, 2012)", "key": {"Homo sapiens": {"species_on_record": "Homo sapiens", "assay": "P-gp-mediated drug resistance in human CEM/VLB cells relative to control", "assay_type": "cell-based"}, "HT-29 [1]": {"tested_on": "HT-29", "assay": "Effect on 20S proteasome subunit beta5 expression in human HT-29 cells at 100 nM relative to control", "assay_type": "functional"}, "HT-29 [2]": {"tested_on": "HT-29", "assay": "Effect on 20S proteasome subunit beta5 expression in human HT-29 cells at 200 nM relative to control", "assay_type": "functional"}, "[3]": {"assay": "Effect on PSMB5 mRNA expression in human Jurkat-B cells expressing PSMB5 C323T mutant at 1000 nM relative to control", "assay_type": "functional"}, "THP-1 [4]": {"tested_on": "THP-1", "assay": "Effect on PSMB5 mRNA expression in human THP1 cells at 50 nM relative to control", "assay_type": "functional"}, "THP-1 [5]": {"tested_on": "THP-1", "assay": "Effect on PSMB5 mRNA expression in human THP1 cells at 200 nM relative to control", "assay_type": "functional"}, "RPMI-8226 [6]": {"tested_on": "RPMI-8226", "assay": "Effect on PSMB5 mRNA expression in human RPMI8226 cells at 100 nM relative to control", "assay_type": "functional"}, "THP-1 [7]": {"tested_on": "THP-1", "assay": "Effect on 20S proteasome subunit beta5 expression in human THP1 cells at 100 nM relative to control", "assay_type": "functional"}, "THP-1 [8]": {"tested_on": "THP-1", "assay": "Effect on PSMB5 mRNA expression in human THP1 cells at 100 nM relative to control", "assay_type": "functional"}, "THP-1 [9]": {"tested_on": "THP-1", "assay": "Effect on PSMB5 mRNA expression in human THP1 cells at 30 nM relative to control", "assay_type": "functional"}, "THP-1 [10]": {"tested_on": "THP-1", "assay": "Effect on 20S proteasome subunit beta5 expression in human THP1 cells at 30 nM relative to control", "assay_type": "functional"}, "SW1573": {"tested_on": "SW1573", "assay": "Effect on 20S proteasome subunit beta5 expression in human SW1573 cells at 150 nM relative to control", "assay_type": "functional", "settings": "pooled result: one value given for 7 cell lines, strains, targets or settings"}, "THP-1 [11]": {"tested_on": "THP-1", "assay": "Effect on 20S proteasome subunit beta5 expression in human THP1 cells at 50 nM relative to control", "assay_type": "functional"}, "RPMI-8226 [12]": {"tested_on": "RPMI-8226", "assay": "Effect on PSMB5 mRNA expression in human RPMI8226 cells at 7 nM relative to control", "assay_type": "functional"}, "[13]": {"assay": "Effect on PSMB5 mRNA expression in human Jurkat-B cells expressing PSMB5 G322A mutant at 1000 nM relative to control", "assay_type": "functional"}, "THP-1 [14]": {"tested_on": "THP-1", "assay": "Effect on 20S proteasome subunit beta5 expression in human THP1 cells at 200 nM relative to control", "assay_type": "functional"}, "RPMI-8226 [15]": {"tested_on": "RPMI-8226", "assay": "Resistance factor, ratio of IC50 for 100 nM bortezonib-resistant human RPMI8226 cells harboring proteosome subunit beta5 A49T mutant to IC50 for wild type human RPMI8226 cells", "assay_type": "functional"}, "[16]": {"target": "Proteasome Macropain subunit (Homo sapiens) (UniProt P49721)", "sequence (P49721 whole entry)": "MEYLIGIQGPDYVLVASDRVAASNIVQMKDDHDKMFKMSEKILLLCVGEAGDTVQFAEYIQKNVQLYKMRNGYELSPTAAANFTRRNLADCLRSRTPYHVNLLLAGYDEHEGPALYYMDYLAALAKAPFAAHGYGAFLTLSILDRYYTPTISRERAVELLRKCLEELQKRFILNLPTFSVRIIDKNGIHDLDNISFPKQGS", "assay": "Ratio of Kinact to Ki for human 20S proteasome subunit beta2"}, "[17]": {"target": "T1, Proteasome component C5 (Homo sapiens) (UniProt P20618)", "T1 sequence (whole entry)": "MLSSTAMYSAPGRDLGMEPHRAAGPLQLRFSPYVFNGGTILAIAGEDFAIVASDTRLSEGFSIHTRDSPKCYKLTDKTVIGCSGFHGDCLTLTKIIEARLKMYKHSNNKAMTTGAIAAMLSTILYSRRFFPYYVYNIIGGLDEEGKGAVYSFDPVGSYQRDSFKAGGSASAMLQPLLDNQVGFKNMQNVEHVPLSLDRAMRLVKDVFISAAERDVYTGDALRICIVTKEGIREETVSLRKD", "assay": "Ratio of Kinact to Ki for human 20S proteasome subunit beta1"}, "[18]": {"target": "T2, Proteasome Macropain subunit MB1 (Homo sapiens) (UniProt P28074)", "T2 sequence (whole entry)": "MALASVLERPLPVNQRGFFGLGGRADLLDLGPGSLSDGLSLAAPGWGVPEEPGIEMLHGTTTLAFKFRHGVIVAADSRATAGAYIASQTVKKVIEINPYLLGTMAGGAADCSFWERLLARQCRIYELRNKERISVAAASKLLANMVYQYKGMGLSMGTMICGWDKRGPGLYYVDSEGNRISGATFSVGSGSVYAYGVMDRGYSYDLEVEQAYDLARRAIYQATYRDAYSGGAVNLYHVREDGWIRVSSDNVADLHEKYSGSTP", "assay": "Ratio of Kinact to Ki for human 20S proteasome subunit beta5"}, "[19]": {"target": "T3, Proteasome Macropain subunit MB1 (Homo sapiens, UniProt P28074)", "T3 sequence (P28074 whole entry)": "T2 sequence (whole entry)", "assay": "Reversible inhibition of human erythrocyte derived 20S proteasome subunit beta5 after 30 mins by fluorogenic assay"}}, "data": [{"smiles": "COC[C@H](NC(=O)c1cnc(C)s1)C(=O)N[C@@H](COC)C(=O)N[C@@H](Cc1ccccc1)C(=O)[C@@]1(C)CO1", "values": [{"measurement": "fold change (FC)", "setting": "Homo sapiens", "value": 23}]}, {"smiles": "CC(C)C[C@H](NC(=O)[C@H](Cc1ccccc1)NC(=O)c1cnccn1)B(O)O", "note": "[BORTEZOMIB]", "values": [{"measurement": "fold change (FC)", "setting": "HT-29 [1]", "value": 3}, {"measurement": "fold change (FC)", "setting": "HT-29 [2]", "value": 3}, {"measurement": "fold change (FC)", "setting": "[3]", "value": 0.9}, {"measurement": "fold change (FC)", "setting": "THP-1 [4]", "value": 0.5}, {"measurement": "fold change (FC)", "setting": "THP-1 [5]", "value": 0.9}, {"measurement": "fold change (FC)", "setting": "RPMI-8226 [6]", "value": 15}, {"measurement": "fold change (FC)", "setting": "THP-1 [7]", "value": 60}, {"measurement": "fold change (FC)", "setting": "THP-1 [8]", "value": 0.6}, {"measurement": "fold change (FC)", "setting": "THP-1 [9]", "value": 0.4}, {"measurement": "fold change (FC)", "setting": "THP-1 [10]", "value": 60}, {"measurement": "fold change (FC)", "setting": "SW1573", "value": 1.3}, {"measurement": "fold change (FC)", "setting": "THP-1 [11]", "value": 60}, {"measurement": "fold change (FC)", "setting": "RPMI-8226 [12]", "value": 5}, {"measurement": "fold change (FC)", "setting": "[13]", "value": 1.7}, {"measurement": "fold change (FC)", "setting": "THP-1 [14]", "value": 60}]}, {"smiles": "CC(C)C[C@H](NC(=O)[C@H](CCc1ccccc1)NC(=O)CN1CCOCC1)C(=O)N[C@@H](Cc1ccccc1)C(=O)N[C@@H](CC(C)C)C(=O)[C@@]1(C)CO1", "note": "[CARFILZOMIB]", "values": [{"measurement": "Ratio IC50", "setting": "RPMI-8226 [15]", "value": 9.7}, {"measurement": "Ratio", "setting": "[16]", "value": "< 100", "unit": "M⁻¹ s⁻¹"}, {"measurement": "fold change (FC)", "setting": "Homo sapiens", "value": 114}, {"measurement": "Ratio", "setting": "[17]", "value": "< 100", "unit": "M⁻¹ s⁻¹"}, {"measurement": "Ratio", "setting": "[18]", "value": 33000, "unit": "M⁻¹ s⁻¹"}]}, {"smiles": "CC(C)C[C@H](NC(=O)[C@@H](NC(=O)c1cccc(-c2ccccc2)n1)[C@@H](C)O)B(O)O", "note": "[DELANZOMIB]", "values": [{"measurement": "IC50", "setting": "[19]", "value": 3.5, "unit": "nM"}]}]}
